{"source": "paper PMC7487798", "about": "“Glutaredoxin 1 Deficiency Leads to Microneme Protein-Mediated Growth Defects in Neospora caninum” (Frontiers in Microbiology, 2020)", "target": "T1, NcGrx1 (rNcGrx1) (Neospora caninum, UniProt F0VCE0)", "T1 construct": "gene NCLIV_038390; recombinant NcGrx1; dithiol CPYC active site", "T1 sequence (F0VCE0 entry or part of it)": "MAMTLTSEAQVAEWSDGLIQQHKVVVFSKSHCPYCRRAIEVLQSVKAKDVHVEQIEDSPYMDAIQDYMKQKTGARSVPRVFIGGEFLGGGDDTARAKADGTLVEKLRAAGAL", "test": "HED assay, coupled to glutathione reductase, NADPH consumption at […] nm", "assay_type": "biochemical", "conditions": "0.05-2 mM HED, 600 nM enzyme, 1 mM GSH, 200 μM NADPH, 100 mM potassium phosphate, 1 mM EDTA, pH 7.0, 25 °C; HED preincubated 3 min with GSH to form the mixed disulfide"}
{"compound": "OCCSSCCO", "note": "[β-hydroxyethyl disulfide]", "values": [{"measurement": "Km", "value": "208 ± 23.9", "unit": "µM"}]}
